Where two headings read alike, the source gives them in different places.
Experiments:
[1] = cited from earlier work; for compound present in feces, % of the administered dose: oral 14C-abiraterone acetate
[2] = cited from earlier work
[3] = test system: serum testosterone and other androgens; details: patients, placebo-controlled phase 3 clinical trial; cited from earlier work
[4] = cited from earlier work; remark: listed apart in the source
[5] = biological target: P-glycoprotein (P-gp) (Homo sapiens, UniProt P08183); details: cited from earlier work
Chain of P-glycoprotein (P-gp) (P08183 whole entry): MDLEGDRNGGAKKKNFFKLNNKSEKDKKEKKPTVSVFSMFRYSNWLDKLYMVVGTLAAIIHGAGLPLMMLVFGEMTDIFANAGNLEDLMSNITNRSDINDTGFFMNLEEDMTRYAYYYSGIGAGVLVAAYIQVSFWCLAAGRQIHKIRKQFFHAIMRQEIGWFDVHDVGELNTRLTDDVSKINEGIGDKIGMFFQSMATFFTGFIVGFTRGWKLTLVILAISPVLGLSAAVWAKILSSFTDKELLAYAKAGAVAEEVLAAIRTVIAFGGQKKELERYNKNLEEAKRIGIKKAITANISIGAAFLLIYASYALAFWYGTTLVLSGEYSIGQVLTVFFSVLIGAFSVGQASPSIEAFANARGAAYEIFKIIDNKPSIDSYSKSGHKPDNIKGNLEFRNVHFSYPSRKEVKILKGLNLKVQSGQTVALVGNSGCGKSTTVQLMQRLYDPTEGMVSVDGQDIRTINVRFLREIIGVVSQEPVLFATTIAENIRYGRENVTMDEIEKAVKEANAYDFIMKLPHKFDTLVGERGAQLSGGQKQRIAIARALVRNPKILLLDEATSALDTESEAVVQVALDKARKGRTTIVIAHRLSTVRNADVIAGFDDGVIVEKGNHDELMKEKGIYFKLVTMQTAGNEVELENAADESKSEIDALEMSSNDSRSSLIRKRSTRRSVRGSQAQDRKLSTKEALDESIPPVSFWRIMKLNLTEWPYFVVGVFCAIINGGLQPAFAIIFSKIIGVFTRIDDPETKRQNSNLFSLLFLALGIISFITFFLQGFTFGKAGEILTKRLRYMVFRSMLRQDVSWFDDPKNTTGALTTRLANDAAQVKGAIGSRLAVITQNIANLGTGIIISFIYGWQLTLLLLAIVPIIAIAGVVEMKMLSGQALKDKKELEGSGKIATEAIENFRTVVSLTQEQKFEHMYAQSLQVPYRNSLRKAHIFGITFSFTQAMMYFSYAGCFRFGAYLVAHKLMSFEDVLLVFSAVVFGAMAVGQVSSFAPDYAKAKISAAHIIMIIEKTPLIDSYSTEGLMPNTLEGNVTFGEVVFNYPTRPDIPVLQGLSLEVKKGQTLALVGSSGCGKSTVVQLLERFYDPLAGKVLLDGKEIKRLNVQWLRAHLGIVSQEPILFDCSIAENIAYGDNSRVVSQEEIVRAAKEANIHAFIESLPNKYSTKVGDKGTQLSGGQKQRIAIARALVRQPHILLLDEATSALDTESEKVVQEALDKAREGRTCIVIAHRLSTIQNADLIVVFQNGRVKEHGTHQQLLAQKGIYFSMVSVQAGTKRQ

[6] = test system: human plasma proteins, albumin and alpha-1 acid glycoprotein; details: cited from earlier work
[7] = Apparent solubility in distilled water; format: physicochemical; details: distillated water, room temperature, 100 nm filter
Source text: The samples were dispersed in distillated water and the resulting dispersions were filtered by 100 nm disposable syringe filter. […] The filtrate may contain Abiraterone acetate complex particles which could not be filtrated out using 100 nm pore size filter.

[8] = PAMPA permeability; details: comparative in-vitro PAMPA assay
Method: PAMPA permeability measurements were performed as described by M Kansi et al. (Journal of medicinal chemistry, 41, (1998) pp 1007) with modifications based on S. Bendels et al (Pharmaceutical research, 23 (2006) pp 2525). Permeability was measured in a 96-well plate assay across an artificial membrane composed of dodecane with 20% soy lecithin supported by a PVDF membrane (Millipore, USA). The receiver compartment was phosphate buffered saline (pH 7.0) supplemented with 1% sodium dodecyl sulfate. The assay was performed at room temperature; incubation time was 1-24 hours. The concentration in the receiver compartment was determined by UV-VIS spectrophotometry (Thermo Scientific Genesys S10).

[9] = 1,000 mg daily, patients with metastatic CRPC
[10] = high-fat (57% fat, 825 calories) meal
[11] = low-fat meal (7% fat, 300 calories)

CC(=O)O[C@H]1CC[C@@]2(C)C(=CC[C@@H]3[C@@H]2CC[C@]2(C)C(c4cccnc4)=CC[C@@H]32)C1 [Abiraterone acetate, (3β)-17-(3-pyridinyl) androsta-5,16-dien-3-yl acetate]
compound present in feces, % of the administered dose [1]: approximately 55% | Solubility in water [2]: practically insoluble | Effect on serum testosterone and other androgens [3]: decreased | steady-state AUC (mean±SD) [4, 9]: 993 ± 639 ng·h/mL | steady-state Cmax (mean±SD) [4, 9]: 226 ± 178 ng/mL | Abiraterone acetate plasma concentrations ([4]; below detectable levels in >99% of the analyzed samples): < 0.2 ng/mL | increase in the mean AUC when dose doubled ([4]; dose doubled from 1,000 to 2,000 mg): 8% | Abiraterone AUC0-∞ higher with food [4, 10]: ~10 fold | Abiraterone Cmax higher with food [4, 10]: approximately 17 fold | Abiraterone AUC0-∞ higher with food [4, 11]: ~5 fold | Abiraterone Cmax higher with food [4, 11]: approximately 7 fold | median time to reach maximum plasma Abiraterone concentrations ([4]; oral, patients with metastatic CRPC): 2 h | Abiraterone AUC0-∞ (exposure) increase (positive food effect) ([4]; single dose): ≤ 10 fold | Abiraterone Cmax increase (positive food effect) ([4]; single dose): up to 17 fold | Abiraterone accumulation: steady-state AUC compared to a single 1,000 mg dose ([4]; steady-state): 2 fold | P-gp inhibition ([5]; not told): inhibitor | P-gp substrate ([5]; not told): not substrates

C[C@]12CC[C@H](O)CC1=CC[C@@H]1[C@@H]2CC[C@]2(C)C(c3cccnc3)=CC[C@@H]12 [Abiraterone]
compound present in feces, % of the administered dose [1]: ~22% | bound to human plasma proteins [6]: > 99% | P-gp substrate ([5]; in vitro, clinically relevant concentrations): not substrates

C[C@]12CC[C@H](OS(=O)(=O)O)CC1=CC[C@@H]1[C@@H]2CC[C@]2(C)C(c3ccc[n+]([O-])c3)=CC[C@@H]12 [N-oxide Abiraterone sulphate]
share of exposure of circulating metabolite in human plasma ([1]; oral 14C-abiraterone acetate capsules): about 43%

(3β)-17-(3-pyridinyl) androsta-5,16-dien-3-yl acetate [Abiraterone acetate]
Apparent solubility [7]: < 4 µg/mL | PAMPA permeability [8]: below 0.1*10^−6 cm/s
